In the supplement of paper PMC10307832:

Tests used:
Experiment in all cases: relative viability (nuclei count vs DMSO), 5 days (fraction); higher = more cells survive
BEN = tested on: BEN
Method in brief: (§1)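 Five library-drug doses in √10 steps were combined with a fixed anchor-drug dose, or a single drug was given alone, by pin tool to lung cancer cell lines in 1536-well plates the day after seeding. Nuclei were stained and counted after 5 days. Relative viability is the nuclei count in treated wells over that in vehicle wells, taken as the median of duplicate plates.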

COR-L 105 = tested on: COR-L 105
Method in brief: as §1

COR-L23 = tested on: COR-L23
Method in brief: as §1

EKVX = tested on: EKVX
Method in brief: as §1

HCC-15 = tested on: HCC-15
Method in brief: as §1

HCC-366 = tested on: HCC-366
Method in brief: as §1

HCC-827 = tested on: HCC-827
Method in brief: as §1

LC-2-ad = tested on: LC-2-ad
Method in brief: as §1

LCLC-97TM1 = tested on: LCLC-97TM1
Method in brief: as §1

LU99A = tested on: LU99A
Method in brief: as §1

NCI-H1755 = tested on: NCI-H1755
Method in brief: as §1

NCI-H1915 = tested on: NCI-H1915
Method in brief: as §1

NCI-H1944 = tested on: NCI-H1944
Method in brief: as §1

NCI-H1993 = tested on: NCI-H1993
Method in brief: as §1

NCI-H2342 = tested on: NCI-H2342
Method in brief: as §1

NCI-H3122 = tested on: NCI-H3122
Method in brief: as §1

NCI-H522 = tested on: NCI-H522
Method in brief: as §1

NCI-H596 = tested on: NCI-H596
Method in brief: as §1

PC-3 [JPC-3] = tested on: PC-3 [JPC-3]
Method in brief: as §1

RERF-LC-KJ = tested on: RERF-LC-KJ
Method in brief: as §1

SK-LU-1 = tested on: SK-LU-1
Method in brief: as §1

SK-MES-1 = tested on: SK-MES-1
Method in brief: as §1

COCC1(CO)C(=O)C2CCN1CC2 (stereo not given) [PRIMA-1MET] + N=C(N)NC(=N)NCCc1ccccc1 [Phenformin] (partner 250 µM)
relative viability (BEN; first compound 0.2 µM): 0.268
relative viability (BEN; first compound 0.6325 µM): 0.275
relative viability (BEN; first compound 6.325 µM): 0.217
relative viability (BEN; first compound 20 µM): 0.224
relative viability (COR-L 105; first compound 0.2 µM): 0.547
relative viability (COR-L 105; first compound 0.6325 µM): 0.438
relative viability (COR-L 105; first compound 2 µM): 0.373
relative viability (COR-L 105; first compound 6.325 µM): 0.459
relative viability (COR-L 105; first compound 20 µM): 0.124
relative viability (COR-L23; first compound 0.2 µM): 0.554
relative viability (COR-L23; first compound 0.6325 µM): 0.413
relative viability (COR-L23; first compound 2 µM): 0.477
relative viability (COR-L23; first compound 6.325 µM): 0.343
relative viability (COR-L23; first compound 20 µM): 0.0169
relative viability (EKVX; first compound 0.2 µM): 0.219
relative viability (EKVX; first compound 0.6325 µM): 0.221
relative viability (EKVX; first compound 6.325 µM): 0.217
relative viability (EKVX; first compound 20 µM): 0.222
relative viability (HCC-15; first compound 0.2 µM): 0.427
relative viability (HCC-15; first compound 0.6325 µM): 0.471
relative viability (HCC-15; first compound 2 µM): 0.439
relative viability (HCC-15; first compound 6.325 µM): 0.451
relative viability (HCC-15; first compound 20 µM): 0.172
relative viability (HCC-366; first compound 0.2 µM): 0.651
relative viability (HCC-366; first compound 0.6325 µM): 0.611
relative viability (HCC-366; first compound 2 µM): 0.484
relative viability (HCC-366; first compound 6.325 µM): 0.633
relative viability (HCC-366; first compound 20 µM): 0.462
relative viability (HCC-827; first compound 0.2 µM): 0.433
relative viability (HCC-827; first compound 0.6325 µM): 0.416
relative viability (HCC-827; first compound 2 µM): 0.344
relative viability (HCC-827; first compound 6.325 µM): 0.367
relative viability (HCC-827; first compound 20 µM): 0.372
relative viability (LC-2-ad; first compound 0.2 µM): 0.548
relative viability (LC-2-ad; first compound 2 µM): 0.49
relative viability (LC-2-ad; first compound 6.325 µM): 0.568
relative viability (LC-2-ad; first compound 20 µM): 0.36
relative viability (LCLC-97TM1; first compound 0.2 µM): 0.436
relative viability (LCLC-97TM1; first compound 0.6325 µM): 0.437
relative viability (LCLC-97TM1; first compound 2 µM): 0.484
relative viability (LCLC-97TM1; first compound 6.325 µM): 0.448
relative viability (LCLC-97TM1; first compound 20 µM): 0.347
relative viability (LU99A; first compound 0.2 µM): 0.646
relative viability (LU99A; first compound 0.6325 µM): 0.736
relative viability (LU99A; first compound 2 µM): 0.734
relative viability (LU99A; first compound 6.325 µM): 0.831
relative viability (LU99A; first compound 20 µM): 0.0482
relative viability (NCI-H1755; first compound 0.2 µM): 0.613
relative viability (NCI-H1755; first compound 0.6325 µM): 0.659
relative viability (NCI-H1755; first compound 2 µM): 0.406
relative viability (NCI-H1755; first compound 6.325 µM): 0.635
relative viability (NCI-H1755; first compound 20 µM): 0.574
relative viability (NCI-H1915; first compound 0.2 µM): 0.44
relative viability (NCI-H1915; first compound 0.6325 µM): 0.345
relative viability (NCI-H1915; first compound 6.325 µM): 0.399
relative viability (NCI-H1915; first compound 20 µM): 0.353
relative viability (NCI-H1944; first compound 0.2 µM): 0.215
relative viability (NCI-H1944; first compound 0.6325 µM): 0.189
relative viability (NCI-H1944; first compound 2 µM): 0.155
relative viability (NCI-H1944; first compound 6.325 µM): 0.201
relative viability (NCI-H1944; first compound 20 µM): 0.214
relative viability (NCI-H1993; first compound 0.2 µM): 0.503
relative viability (NCI-H1993; first compound 0.6325 µM): 0.526
relative viability (NCI-H1993; first compound 2 µM): 0.496
relative viability (NCI-H1993; first compound 6.325 µM): 0.544
relative viability (NCI-H1993; first compound 20 µM): 0.57
relative viability (NCI-H2342; first compound 0.2 µM): 0.58
relative viability (NCI-H2342; first compound 0.6325 µM): 0.667
relative viability (NCI-H2342; first compound 2 µM): 0.462
relative viability (NCI-H2342; first compound 6.325 µM): 0.608
relative viability (NCI-H2342; first compound 20 µM): 0.543
relative viability (NCI-H3122; first compound 0.2 µM): 0.367
relative viability (NCI-H3122; first compound 0.6325 µM): 0.35
relative viability (NCI-H3122; first compound 6.325 µM): 0.392
relative viability (NCI-H3122; first compound 20 µM): 0.343
relative viability (NCI-H522; first compound 0.2 µM): 0.626
relative viability (NCI-H522; first compound 0.6325 µM): 0.459
relative viability (NCI-H522; first compound 2 µM): 0.534
relative viability (NCI-H522; first compound 6.325 µM): 0.619
relative viability (NCI-H522; first compound 20 µM): 0.142
relative viability (NCI-H596; first compound 0.2 µM): 0.752
relative viability (NCI-H596; first compound 0.6325 µM): 0.794
relative viability (NCI-H596; first compound 2 µM): 0.622
relative viability (NCI-H596; first compound 6.325 µM): 0.891
relative viability (NCI-H596; first compound 20 µM): 0.693
relative viability (PC-3 [JPC-3]; first compound 0.2 µM): 0.464
relative viability (PC-3 [JPC-3]; first compound 0.6325 µM): 0.456
relative viability (PC-3 [JPC-3]; first compound 2 µM): 0.462
relative viability (PC-3 [JPC-3]; first compound 6.325 µM): 0.477
relative viability (PC-3 [JPC-3]; first compound 20 µM): 0.466
relative viability (RERF-LC-KJ; first compound 0.2 µM): 0.493
relative viability (RERF-LC-KJ; first compound 0.6325 µM): 0.432
relative viability (RERF-LC-KJ; first compound 2 µM): 0.449
relative viability (RERF-LC-KJ; first compound 6.325 µM): 0.52
relative viability (RERF-LC-KJ; first compound 20 µM): 0.427
relative viability (SK-LU-1; first compound 0.2 µM): 0.545
relative viability (SK-LU-1; first compound 0.6325 µM): 0.559
relative viability (SK-LU-1; first compound 2 µM): 0.326
relative viability (SK-LU-1; first compound 6.325 µM): 0.606
relative viability (SK-LU-1; first compound 20 µM): 0.0941
relative viability (SK-MES-1; first compound 0.2 µM): 0.724
relative viability (SK-MES-1; first compound 0.6325 µM): 0.731
relative viability (SK-MES-1; first compound 2 µM): 0.722
relative viability (SK-MES-1; first compound 6.325 µM): 0.663
relative viability (SK-MES-1; first compound 20 µM): 0.615
